Test results published in the supplement of paper PMC10307832.

Tests used:
Experiment in all cases: relative viability (nuclei count vs DMSO), 5 days (fraction); higher = more cells survive
[1] = compound: CC[C@H](Nc1ncnc2[nH]cnc12)c1nc2cccc(F)c2c(=O)n1-c1ccccc1 [Idelalisib]
How it was run: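 For viability, nuclei in each treated well were divided by nuclei in vehicle wells and the median across plates was taken. Lung cancer cell lines in 1536-well plates were pinned with five library-drug doses (not always all listed) spaced by √10, cultured 5 days without medium change, and imaged at 4× after Hoechst staining, with plates passing only at control CV below 25% and at least one doubling.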

[2] = compound: CC[C@H](Nc1ncnc2[nH]cnc12)c1nc2cccc(F)c2c(=O)n1-c1ccccc1 [Idelalisib] + COc1cccc2cc(-c3nc([C@H]4CC[C@H](C(=O)O)CC4)n4ncnc(N)c34)[nH]c12 [OSI-027] (partner 0.5 µM)
How it was run: (§1)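 Cells from lung cancer lines were seeded into 1536-well plates and, one day later, dosed by pin tool. Treatments were either a single drug or a fixed dose of an anchor drug with five library-drug doses (not always all listed) in √10 steps. After 5 days, nuclei were stained in a one-step fixation (final 0.05% Triton X-100, 1% formaldehyde, 1 ug/ml Hoechst) and counted on 4× images, and relative viability is the treated-to-vehicle nuclei ratio, as the median of duplicate plates.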

[3] = compound: Nc1nc2[nH]cc(CCc3ccc(C(=O)N[C@@H](CCC(=O)O)C(=O)O)cc3)c2c(=O)[nH]1 [Pemetrexed] + Cc1cc(Nc2cc(N3CCN(C)CC3)nc(Sc3ccc(NC(=O)C4CC4)cc3)n2)n[nH]1 [Tozasertib] (partner 0.1 µM)
How it was run: as §1

[4] = compound: Nc1nc2[nH]cc(CCc3ccc(C(=O)N[C@@H](CCC(=O)O)C(=O)O)cc3)c2c(=O)[nH]1 [Pemetrexed] + Cc1nc(NC(=O)N2CCC[C@H]2C(N)=O)sc1-c1ccnc(C(C)(C)C(F)(F)F)c1 [Alpelisib] (partner 2 µM)
How it was run: as §1

Cell Line	relative viability ([1]; 0.04 µM)	relative viability ([1]; 0.1265 µM)	relative viability ([1]; 0.4 µM)	relative viability ([1]; 1.265 µM)	relative viability ([1]; 4 µM)	relative viability ([2]; first compound 0.04 µM)	relative viability ([2]; first compound 0.1265 µM)	relative viability ([2]; first compound 0.4 µM)	relative viability ([2]; first compound 1.265 µM)	relative viability ([2]; first compound 4 µM)	relative viability ([3]; first compound 0.002 µM)	relative viability ([3]; first compound 0.006325 µM)	relative viability ([3]; first compound 0.02 µM)	relative viability ([3]; first compound 0.06325 µM)	relative viability ([3]; first compound 0.2 µM)	relative viability ([4]; first compound 0.002 µM)	relative viability ([4]; first compound 0.006325 µM)	relative viability ([4]; first compound 0.02 µM)	relative viability ([4]; first compound 0.06325 µM)	relative viability ([4]; first compound 0.2 µM)
NCI-H1666	1.03	1.04	0.911	0.981	0.902	0.889	0.895	0.782	0.83	0.759	0.582	0.554	0.633	0.593	0.598	1.02	0.853	0.969	0.88	0.595
COR-L 105	1.03	0.997	0.802	0.976	0.752	0.739	0.629	0.505	0.725	0.579	0.431	0.332	0.31	0.366	0.338	0.93	0.708	1.08	0.891	0.909
LU99A	1.08	1.08	0.814	1.14	1.05	0.302	0.322	0.242	0.298	0.305	0.259	0.325	0.338	0.272	0.249	0.517	0.556	0.492	0.498	0.346
NCI-H596	1.05	1.01	0.976	1.04	0.809	0.859	0.746	0.666	0.65	0.551	0.873	0.858	0.887	0.754	0.491	0.409	0.485	0.593	0.39	0.374
201T	0.985	1.01	0.885	1.06	0.867	0.812	0.736	0.548	0.67	0.679	0.833	0.97	0.971	0.976	0.871	1.07	1.05	1.03	1	0.955
HCC-15	1.12	1.04	0.914	1.13	1.02	0.702	0.754	0.509	0.869	0.668	0.431	0.394	0.497	0.407	0.205	0.821	0.847	0.867	0.666	0.519
